Usually melting point stands for the temperature, or range, at which the solid turns liquid.

The conditions of the data set: a range is the spread between reports.

In the case of `CCCCCCCCCCCCO`, the melting point fell in the range of 24 to 26 °C.

Compound `OCc1cc(Br)ccc1O` gave a melting point of 109 to 113 °C.

`Oc1ccc(N=Nc2ccccc2)cc1` registered a melting point of 154 to 155 °C. For `O=C1CCC(=O)N1` the value was 124 to 126 °C. For `Cc1cccc(N)c1` the value was -31.3 to -30 °C.

Compound `CCCCCCCCCCC(=O)O` came in with a melting point of 28 to 28.6 °C. In turn, `c1ccc(-c2ccc(-c3ccccc3)cc2)cc1` gave a melting point of 210 to 214 °C. For `CC(=O)NC12CC3CC(CC(C3)C1)C2` the value was 148 °C. For `OCc1ccccc1` the value was -15.2 to -15 °C. The figure for `CCCN(CC1CC1)c1c([N+](=O)[O-])cc(C(F)(F)F)cc1[N+](=O)[O-]` is 32 to 32.5 °C. In the case of `C1COCOC1`, the melting point is -45 to -42 °C. In the case of `Brc1ccc(-c2ccccc2)cc1`, the melting point fell in the range of 90 to 91.5 °C. For the compound `CC#CC(=O)O`, the melting point was 77 to 78 °C.

As for `OCc1ccccc1CO`, the melting point is 62 to 64 °C.

With `C=Cc1cccc([N+](=O)[O-])c1`, the melting point is -10 to -5 °C. Consider `O=C(O)Cc1cccc(Cl)c1`, for which the melting point lay within 78 to 79 °C. Regarding `ON=C1CCCCC1`, the melting point was 89 to 90 °C. For `O=C(O)c1cccc([N+](=O)[O-])c1C(=O)O` the value was 210 to 212 °C. On to `C1CC1`, for which the melting point is -128 to -127 °C. For `O=C(O)Cc1ccc(C(F)(F)F)cc1` the value was 80 to 84 °C; for `CCCCCCCCCCCCCCCCCCCCCC(=O)O`, 76 to 81 °C. `NCCC(=O)O` registered a melting point of 196 to 200 °C. The figure for `CCCCC(CC)COC(=O)CCCCC(=O)OCC(CC)CCCC` (stereo unspecified) is -67.8 to -67 °C.

In the case of `CC(=O)OCC(C)C`, the melting point is -99 to -98.8 °C. Take `Nc1cccc(Cl)c1Cl`: the melting point lay within 22 to 24 °C.

As to `C1CCc2nnnn2CC1`, the melting point was 57.5 to 60 °C. The figure for `Cc1ccc2cc3c(ccc4ccccc43)c3c2c1CC3` is 180 °C. For `O=C(CBr)c1ccccc1` the value was 49 to 50.5 °C; for `CCCCCCCN`, -23 to -18 °C. As for `CCC(C)(C)C(=O)OC1CC(C)C=C2C=CC(C)C(CCC3CC(O)CC(=O)O3)C21` (stereo unspecified), the melting point stood at 136 °C. In the case of `CC(=O)N(O)CCCCCNC(=O)CCC(=O)N(O)CCCCCNC(=O)CCC(=O)N(O)CCCCCN`, the melting point was 139 to 140 °C.

With `CS(=O)(=O)c1ccc(C(O)C(CO)NC(=O)C(Cl)Cl)cc1` (stereo unspecified), the melting point was 165 °C. The figure for `COc1ccc(NC(=O)N(C)C)cc1Cl` is 126 to 127 °C.

Consider `O=C(O)c1ccc(Cl)c(Cl)c1`, for which the melting point lay within 207 to 208 °C.

As to `CC[Si](Cl)(Cl)CC`, the melting point was -97 to -96.5 °C. Consider `Cc1ccc(O)c(O)c1`, for which the melting point was in the range of 65 to 68 °C. For `CCCCCCCCCC` the value was -30 to -29.7 °C; for `Cc1cc(C2(c3cc(C)c(O)c(Br)c3)OS(=O)(=O)c3ccccc32)cc(Br)c1O`, 241 to 242 °C; for `CC(=O)O`, 16.6 to 17 °C. Compound `C=Cc1cccc(C(=O)O)c1` displayed a melting point of 95 to 96 °C. For the compound `CC(=O)Nc1ccc2c(c1)Cc1ccccc1-2`, the melting point lay in the range of 193 to 194 °C. The figure for `Nc1c(Br)cc(Br)cc1Br` is 120 to 122 °C. `C1CNCCN1` came in with a melting point of 106 to 110 °C.

On to `O=C(O)c1ccoc1`, for which the melting point came to 122 °C. Regarding `O=C(O)C(F)(F)C(F)(F)C(=O)O`, the melting point was in the range of 115 to 119 °C. For `O=Cc1ccc2c(c1)OCO2` the value was 36 to 37 °C; for `O=C(O)COc1cccc(Cl)c1`, 108 to 110 °C. For `c1ccc(OP(Oc2ccccc2)Oc2ccccc2)cc1` the value was 23 to 25 °C; for `CCCCCC(C)C`, -109 to -105 °C; for `O=[N+]([O-])c1ccc(CO)cc1`, 94 to 96.5 °C. The figure for `COc1cccc(C(=O)O)c1O` is 151 to 152 °C; for `O=[N+]([O-])c1ccc(O)c(O)c1` it is 175 to 176 °C; for `O=C(O)c1cccc(I)c1` it is 187 to 188 °C.

In the case of `CC1=C(C)CCC1`, the melting point is -90.4 to -90 °C. For `N#Cc1nn(-c2c(Cl)cc(C(F)(F)F)cc2Cl)c(N)c1S(=O)C(F)(F)F` (stereo unspecified) the value was 199 to 200 °C. `Cc1ccc(C(=O)c2ccccc2)cc1C` yielded a melting point of 46 to 47.5 °C.

Compound `ClCC(CCl)(CCl)CCl` yielded a melting point of 95 to 97 °C. On to `COC(=O)/C=C/C(=O)OC`, for which the melting point was in the range of 102 to 104 °C. For `Cc1ccc(S(=O)(=O)c2ccc(C)cc2)cc1` the value was 157 to 159 °C. The figure for `COC(=O)c1ccc(O)cc1O` is 118 to 120 °C.

For `CCOc1cc(C=O)ccc1O`, the melting point lay in the range of 77 to 77.5 °C. For `COc1cc(C(C)=O)ccc1O` the value was 114 to 115 °C; for `O=C1CCCN1`, 23 to 24 °C; for `OCC(F)F`, -28.2 to -28 °C. For `N#Cc1cccc([N+](=O)[O-])c1` the value was 116 to 117 °C; for `C=C(C)C(C)(C)C`, -110 °C. The compound `CC1(C)CCCC1` came in with a melting point of -70 to -69.8 °C. For `Nc1cccc(Br)c1`, the melting point was in the range of 16 to 18.5 °C. In turn, `Cn1c(=O)n(C)c(=O)n(C)c1=O` gave a melting point of 176 °C.

With `O=C(O)CCOc1ccccc1`, the melting point was 97.5 to 98 °C. `CCCCl` yielded a melting point of -123 to -122 °C.

For `O=C(O)CCCCBr`, the melting point lay in the range of 39 to 40 °C.

As to `Brc1sc(Br)c(Br)c1Br`, the melting point lay within 115 to 118 °C. The compound `Nc1cccc(Cl)c1` showed a melting point of -10.4 to -10 °C. The figure for `CCC1(C(C)C)C(=O)NC(=O)NC1=O` is 198 to 203 °C; for `CC12CCC3c4ccc(O)cc4CCC3C1CCC2O` (stereo unspecified) it is 173 to 178 °C. `O=C(O)c1ccc(C(=O)c2ccccc2)cc1` came in with a melting point of 198 to 199 °C. The figure for `CCc1ccccc1Cl` is -83 to -82.7 °C. Regarding `Cc1cncnc1`, the melting point was in the range of 30 to 32 °C. As for `Oc1ccc2ccccc2c1-c1c(O)ccc2ccccc12`, the melting point is 216 to 217 °C. For the compound `COC(F)(F)C(Cl)Cl`, the melting point is -36 to -35 °C. In turn, `Cc1cccc(I)c1` returned a melting point of -27.2 to -27 °C. `ClC(Cl)Cl`: the melting point is -63.6 to -63 °C.

`COc1cc(OC)c2ccc(=O)oc2c1` gave a melting point of 148 to 149 °C. `OCC(O)C1OC2OC(C(Cl)(Cl)Cl)OC2C1O` (stereo unspecified) came in with a melting point of 183 to 187 °C. The figure for `CCCCCCCCCCCCCCCC(=O)O` is 61 to 62.5 °C. `CC(C)(O)CCC(C)(C)O` had a melting point of 89 to 92 °C. `O=Cc1c[nH]c2ccccc12` yielded a melting point of 196 to 197 °C. For `CCCCCCCCCCCCCC(C)=O` the value was 39 to 39.5 °C. For `O=[N+]([O-])c1ccc(Oc2ccc(C(F)(F)F)cc2[N+](=O)[O-])cc1`, the melting point was in the range of 90 to 94 °C. The figure for `CC(C)(C)c1ccccc1O` is -7 to -6.8 °C; for `O=[N+]([O-])c1c(Cl)cc(Cl)cc1Cl` it is 71 to 72 °C; for `O=C(O)C1CC1` it is 15.5 to 18.5 °C. The figure for `CCCCC(CC)COP(=O)(OCC(CC)CCCC)OCC(CC)CCCC` (stereo unspecified) is -74 to -70 °C; for `Cc1ccc(Cl)cc1[N+](=O)[O-]` it is 36 to 39 °C. In the case of `CCCCCCCCCCCCCCCCCC(=O)OCC`, the melting point fell in the range of 33 to 35 °C. As for `O=C(O)c1ccc(O)c(Cl)c1`, the melting point was in the range of 169 to 171 °C. The figure for `Nc1c(Cl)cc(Cl)cc1Cl` is 74 to 78.5 °C; for `C=CCC1(C(C)CCC)C(=O)NC(=O)NC1=O` (stereo unspecified) it is 95 to 100 °C. For `COc1ccc(C(=O)c2ccccc2)cc1` the value was 61.5 to 62 °C; for `CCc1ccc(N)cc1`, -5 to -4.8 °C. `C1CCCCCCCCCCCCCC1` returned a melting point of 61.3 to 62 °C. Turning to `Cc1cc(C)cc(C)c1`, the melting point was -45 to -44.7 °C. Regarding `N#Cc1ccccn1`, the melting point lay within 27 to 29 °C. The figure for `CN1C(=O)CCC1=O` is 66 to 71 °C; for `CCSCC` it is -104 °C; for `CCCCCCCC(C)C` it is -75 to -74.6 °C. Take `COC(=O)c1ccc(N)cc1`: the melting point lay in the range of 110 to 114 °C.

Compound `Nc1cc([N+](=O)[O-])ccc1Cl` yielded a melting point of 118 to 121 °C. The figure for `OCc1cccnc1` is -7 to -6.5 °C. On to `CCCc1ccc(O)cc1`, for which the melting point lay within 21 to 22 °C. For `O=C(O)c1ccccn1` the value was 136 to 137 °C; for `CCCI`, -101 °C; for `Cc1ccc(CC(=O)O)cc1`, 92 to 93 °C.

The compound `CCC#N` gave a melting point of -93 to -92 °C. Consider `O=Cc1c(Cl)cccc1Cl`, for which the melting point was in the range of 70.5 to 71.5 °C. For `c1ccc(-c2ccc(-c3ccc(-c4ccccc4)cc3)cc2)cc1` the value was 317 to 320 °C.

`CCCCCCCCCCCCCCCCBr` gave a melting point of 17 to 18 °C. For `Cc1ccc(O)c([N+](=O)[O-])c1` the value was 34 to 36.5 °C; for `Oc1cc(Cl)ccc1Oc1ccc(Cl)cc1Cl`, 55.6 to 57 °C. For `OCC(Br)(Br)Br` the value was 79 to 81 °C; for `CC(=O)c1ccc([N+](=O)[O-])cc1`, 79 to 81.8 °C. The compound `O=C(O)c1ccc(O)cc1` showed a melting point of 214 to 217 °C. In turn, `NC(=O)c1ccccc1N` came in with a melting point of 108 to 113 °C. `N#Cc1ccncc1`: the melting point was in the range of 76 to 79 °C. In turn, `N#CCc1cccc(Br)c1` yielded a melting point of 27 to 28 °C. The figure for `O=C(O)c1c(F)cccc1Cl` is 158 to 160 °C.

As for `C=CC(=C)C`, the melting point is -146 °C. The figure for `CC(C)(O)C(C)(C)O` is 43 to 44 °C; for `CN(C)Cc1cc(C(C)(C)C)c(O)c(C(C)(C)C)c1` it is 91 to 93.5 °C; for `COC(=O)c1ccc(OC)cc1` it is 49 to 50 °C.

In turn, `ON=C1CCCC1` yielded a melting point of 56 to 57.8 °C. The figure for `CC(C)(C)CC(=O)O` is 6 to 6.5 °C; for `CCCCCCCCCCCCCC(=O)OC` it is 18 to 19 °C. The compound `O=C(O)Cc1cccc(C(F)(F)F)c1` displayed a melting point of 77 to 78 °C. Compound `Nc1cccc([N+](=O)[O-])c1` gave a melting point of 112 to 114 °C.
